Source: article PMC9225989 (Signal Transduction and Targeted Therapy, 2022)
pKd: −log10 of the molar value.

Target: T1, cannabinoid receptor 1 (CB1R, hCB1R) (Homo sapiens, UniProt P21554)
T1 construct: gene CNR1; purified human CB1R (hCB1R) protein that is close to its full-length (473 amino acids)
Assay: biochemical
Type: binding

T1 sequence (P21554 whole entry): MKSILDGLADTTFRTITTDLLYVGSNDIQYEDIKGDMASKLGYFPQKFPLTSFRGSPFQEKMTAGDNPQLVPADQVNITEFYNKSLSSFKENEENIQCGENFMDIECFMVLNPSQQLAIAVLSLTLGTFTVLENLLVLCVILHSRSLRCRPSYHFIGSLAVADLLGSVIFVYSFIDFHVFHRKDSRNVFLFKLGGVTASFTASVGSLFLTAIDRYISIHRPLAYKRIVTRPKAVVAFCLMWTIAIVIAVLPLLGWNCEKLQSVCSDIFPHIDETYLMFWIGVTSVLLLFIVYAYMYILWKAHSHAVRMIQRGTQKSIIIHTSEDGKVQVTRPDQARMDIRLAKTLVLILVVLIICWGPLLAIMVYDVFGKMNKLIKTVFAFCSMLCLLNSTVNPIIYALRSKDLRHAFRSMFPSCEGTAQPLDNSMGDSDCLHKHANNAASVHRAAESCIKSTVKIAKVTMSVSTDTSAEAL

SMILES	pKd
Cc1cc2c(s1)Nc1ccccc1N=C2N1CCN(C)CC1 [Olz, olanzapine]	8.60
CN1CCN(C2=Nc3cc(Cl)ccc3Nc3ccccc32)CC1 [Clz, clozapine]	8.58
